From BindingDB's records for doi:10.1021/jm050373g (Merck Research Laboratories, 2005)

Target: PPAR-alpha (Mesocricetus auratus)
Experiment: Effective concentration against hamster PPAR-alpha in Gal4 transactivation assay

| SMILES | EC50 [µM] |
| --- | --- |
| CC(C)[C@@]1(C(=O)O)Cc2cc(OCCOc3ccc(OC(F)(F)F)cc3Cl)ccc2O1 [(R)-5-[2-(2-Chloro-4-trifluoromethoxy-phenoxy)-ethoxy]-2-isopropyl-2,3-dihydro-benzofuran-2-carboxylic acid] | 0.37 |
| CCC1(C(=O)O)Cc2cc(OCCCOc3ccc(C(C)(C)C)cc3Cl)ccc2O1 (centres undefined) [5-[3-(4-tert-Butyl-2-chloro-phenoxy)-propoxy]-2-ethyl-2,3-dihydro-benzofuran-2-carboxylic acid] | 0.28 |
| CC(C)[C@@]1(C(=O)O)Cc2cc(OCCCOc3cc(C(F)(F)F)ccc3Cl)ccc2O1 [(R)-5-[3-(2-Chloro-5-trifluoromethyl-phenoxy)-propoxy]-2-isopropyl-2,3-dihydro-benzofuran-2-carboxylic acid] | 0.42 |
| CCC1(C(=O)O)Cc2cc(OCCCOc3ccc(OCC(F)(F)F)cc3Cl)ccc2O1 (centres undefined) [5-{3-[2-Chloro-4-(2,2,2-trifluoro-ethoxy)-phenoxy]-propoxy}-2-ethyl-2,3-dihydro-benzofuran-2-carboxylic acid] | 0.402 |
